We go through 42 compounds from patent US8916702B2 (priority 2012, dated 2014).

The term EC50 denotes the concentration that produces a half-maximal response.

The experiment concerns HCV pseudoparticles (genotype 1a HCV E1 and E2 envelope, H77C isolate). Nature of the experiment: microbe, parasite or virus in culture. Particulars: Hepatitis C virus. Format: cell-based.
[1] abbreviates: Huh-7, 48 h, HCV pseudoparticles (genotype 1a, H77C) in Huh7 cells, average of duplicate, luciferase 2 days after infection.
[2] abbreviates: Huh-7, read-out: Activity (EC50 class), HCV pseudoparticles (genotype 1a, H77C) in Huh7 cells, EC50 expressed as class A/B.
Setting [3] is: Huh-7, 48 h, HCV pseudoparticle infection of Huh7 cells, luciferase 2 days after infection, average of duplicates.
The mark [4] stands for this setting: Huh-7, 48 h, read-out: Activity (EC50 class), HCV pseudoparticle infection of Huh7 cells, luciferase 2 days after infection, EC50 expressed as class A/B.
Setting [5] is: Huh-7, 48 h, read-out: Activity (EC50 class), HCV pseudoparticles, Huh7 cells, luciferase 2 days after infection, average of duplicates.
[6] abbreviates: Huh-7, 48 h, HCV pseudoparticles, Huh7 cells, luciferase 2 days after infection, average of duplicates.

Where two headings read alike, the source gives them in different places.

As to `Cc1ccc(NC(=O)C(=O)NCC(C)(C)CNC(=O)c2ccc(Nc3nc(NC4(c5ccc(Cl)cc5)CC4)nc(OCC(F)(F)F)n3)cc2)c(F)c1` [Compound 3056], the EC50 was 0.007 nM under setting [1] and 0.01 to 10 nM under setting [2]. Take `O=C(NC/C(=N/C(=O)c1ccc(Nc2nc(NC3(c4ccc(Cl)cc4)CC3)nc(OCC(F)(F)F)n2)cc1)C(=O)O)C(=O)Nc1ccc(C(=O)N2CCOCC2)cc1` [Compound 3166]: the EC50 under setting [2] lay within 0.01 to 10 nM.

For the compound `C#Cc1ccc(NC(=O)C(=O)NC[C@H](NC(=O)c2ccc(Nc3nc(NC4(c5ccc(Cl)cc5)CC4)nc(OCC(F)(F)F)n3)cc2)C(=O)OC)cc1` [Compound 3100], it took 0.27 nM to reach a half-maximal effect under setting [1] (EC50) and the EC50 under setting [2] fell in the range of 0.01 to 10 nM. Turning to `COC(=O)[C@H](CNC(=O)C(=O)NCC1CCOCC1)NC(=O)c1ccc(Nc2nc(NC3(c4ccc(Cl)cc4)CC3)nc(OCC(F)(F)F)n2)cc1` [Compound 1456], the EC50 under setting [3] was found to be 3.45 nM and the EC50 under setting [4] was in the range of 0.01 to 10 nM.

For `COC(=O)[C@@H](CCNC(=O)C(=O)Nc1ccc(Oc2ccc(Cl)cc2Cl)nc1)NC(=O)c1ccc(Nc2nc(NC3(c4ccc(Cl)cc4)CC3)nc(OCC(F)(F)F)n2)cc1` [Compound 3580], under setting [2], the EC50 lay within 10 to 1000 nM. Take `O=C(Nc1nccs1)C(=O)N[C@H](CCNC(=O)c1ccc(Nc2nc(NC3(c4ccc(Cl)cc4)CC3)nc(OCC(F)(F)F)n2)cc1)C(=O)O` [Compound 3496]: under setting [2], the concentration for a half-maximal effect (EC50) lay in the range of 10 to 1000 nM.

As to `COC(=O)[C@H](CCNC(=O)C(=O)NC1Cc2ccccc2C1)NC(=O)c1ccc(Nc2nc(NC3(c4ccc(Cl)cc4)CC3)nc(OCC(F)(F)F)n2)cc1` [Compound 1314], the EC50 reads like this: under setting [3], 0.43 nM; under setting [4], 0.01 to 10 nM. On to `O=C(Nc1cccc(F)c1)C(=O)N(CCO)CCCNC(=O)c1ccc(Nc2nc(NC3(c4ccc(Cl)cc4)CC3)nc(OCC(F)(F)F)n2)cc1` [Compound 3497], for which the 50% effective concentration (EC50) under setting [2] is 0.01 to 10 nM.

As for `CCOC(=O)[C@H](CNC(=O)C(=O)N(C)C)NC(=O)c1ccc(Nc2nc(NC3(c4ccc(Cl)cc4)CC3)nc(OCC(F)(F)F)n2)cc1` [Compound 1020, (S)-ethyl 2-(4-(4-(1-(4-chlorophenyl)cyclopropylamino)-6-(2,2,2-trifluoroethoxy)-1,3,5-triazin-2-ylamino)benzamido)-3-(2-(dimethylamino)-2-oxoacetamido)propanoate], the EC50 under setting [4] lay within 0.01 to 10 nM.

Regarding `CC(C)(CNC(=O)C(=O)Nc1ccc(C[Si](C)(C)C)cc1)CNC(=O)c1ccc(Nc2nc(NC3(c4ccc(Cl)cc4)CC3)nc(OCC(F)(F)F)n2)cc1` [Compound 3054], under setting [2], the EC50 was in the range of 0.01 to 10 nM. On the same count and under the same terms, to `CC(CNC(=O)C(=O)NC1CCCCC1)CNC(=O)c1ccc(Nc2nc(NC3(c4ccc(Cl)cc4)CC3)nc(OCC(F)(F)F)n2)cc1` (stereo not drawn) [Compound 3472] belongs 0.01 to 10 nM. Take `O=C(NC[C@H](NC(=O)c1ccc(Nc2nc(NC3(c4ccc(Cl)cc4)CC3)nc(OCC(F)(F)F)n2)cc1)C(=O)O)C(=O)Nc1cn[nH]c1` [Compound 1354]: the concentration for a half-maximal effect (EC50) under setting [4] was 0.01 to 10 nM.

In the case of `CC(C)(CNC(=O)C(=O)Nc1nc2cc(O)ccc2s1)CNC(=O)c1ccc(Nc2nc(NC3(c4ccc(Cl)cc4)CC3)nc(OCC(F)(F)F)n2)cc1` [Compound 3801], the EC50 under setting [5] lay in the range of 0.01 to 10 nM. Take `COC(=O)[C@H](CNC(=O)C(=O)Nc1ccc(-n2ccnc2)cc1)NC(=O)c1ccc(Nc2nc(NC3(c4ccc(Cl)cc4)CC3)nc(OCC(F)(F)F)n2)cc1` [Compound 3183]: the half-maximal effective concentration (EC50) under setting [2] lay within 0.01 to 10 nM. On to `Cc1ccc(NC(=O)C(=O)N(CCO)CCCNC(=O)c2ccc(Nc3nc(NC4(c5ccc(Cl)cc5)CC4)nc(OCC(F)(F)F)n3)cc2)cc1O` [Compound 3506], for which the EC50 by setting is: under setting [1], 0.51 nM; under setting [2], 0.01 to 10 nM. In the same order, the values of `Cn1ccc(NC(=O)C(=O)NCC(C)(C)CNC(=O)c2ccc(Nc3nc(NC4(c5ccc(Cl)cc5)CC4)nc(OCC(F)(F)F)n3)cc2F)n1` [Compound 3567] are 0.035 nM and 0.01 to 10 nM.

Turning to `O=C(NCC[C@H](NC(=O)c1ccc(Nc2nc(NC3(c4ccc(Cl)cc4)CC3)nc(OCC(F)(F)F)n2)cc1)C(=O)O)C(=O)Nc1cccc(Cc2ccccc2)c1` [Compound 3639], under setting [5], the EC50 was in the range of 0.01 to 10 nM.

For `Cc1ccc(NC(=O)C(=O)NCC(C)(C)CNC(=O)c2ccc(Nc3nc(NC4(c5ccc(Cl)cc5)CC4)nc(OCC(F)(F)F)n3)cc2)cc1` [Compound 1536], the EC50 under setting [4] was in the range of 0.01 to 10 nM.

For `O=C(NCC[C@H](NC(=O)c1ccc(Nc2nc(NC3(c4ccc(Cl)cc4)CC3)nc(OCC(F)(F)F)n2)cc1)C(=O)O)C(=O)Nc1cccc(Cc2ccccn2)c1` [Compound 3650], under setting [5], the EC50 lay in the range of 0.01 to 10 nM. As for `CC(C)(CNC(=O)C(=O)Nc1ccc(Cc2ccccc2)cc1)CNC(=O)c1ccc(Nc2nc(NC3(c4ccc(Cl)cc4)CC3)nc(OCC(F)(F)F)n2)cc1` [Compound 1579], the EC50 under setting [4] is 0.01 to 10 nM. For the compound `COC(=O)[C@H](CCNC(=O)C(=O)Nc1ccc(CNC(N)=O)cc1)NC(=O)c1ccc(Nc2nc(NC3(c4ccc(Cl)cc4)CC3)nc(OCC(F)(F)F)n2)cc1` [Compound 3314], under setting [2], the EC50 was 0.01 to 10 nM. Consider `CC(C)(O)C=Cc1cccc(NC(=O)C(=O)NCC[C@H](NC(=O)c2ccc(Nc3nc(NC4(c5ccc(Cl)cc5)CC4)nc(OCC(F)(F)F)n3)cc2)C(=O)O)c1` [Compound 3648], for which the EC50 under setting [6] is 0.2 nM and the EC50 under setting [5] was 0.01 to 10 nM. On to `COC(=O)[C@H](CNC(=O)C(=O)NCC1CC1)NC(=O)c1ccc(Nc2nc(NC3(c4ccc(Cl)cc4)CC3)nc(OCC(F)(F)F)n2)cc1` [Compound 1461], for which, under setting [4], the EC50 lay within 0.01 to 10 nM. Turning to `COC(=O)[C@H](CNC(=O)C(=O)Nc1cccc(Oc2cccnc2)c1)NC(=O)c1ccc(Nc2nc(NC3(c4ccc(Cl)cc4)CC3)nc(OCC(F)(F)F)n2)cc1` [Compound 3737], the EC50 was 1.63 nM under setting [6] and 0.01 to 10 nM under setting [5]. As for `CC(C)(CNC(=O)C(=O)Nc1ccc(C(=O)c2ccc(NC(=O)CCCCCNC(=O)CCCC[C@H]3SC[C@@H]4NC(=O)N[C@@H]43)cc2)cc1)CNC(=O)c1ccc(Nc2nc(NC3(c4ccc(Cl)cc4)CC3)nc(OCC(F)(F)F)n2)cc1` [Compound 3558], the EC50 by setting is: under setting [1], 0.26 nM; under setting [2], 0.01 to 10 nM.

Turning to `COC(=O)[C@H](CCNC(=O)C(=O)Nc1ccc(-c2nncn2C)cc1)NC(=O)c1ccc(Nc2nc(NC3(c4ccc(Cl)cc4)CC3)nc(OCC(F)(F)F)n2)cc1` [Compound 3317], the EC50 under setting [2] is 0.01 to 10 nM. As to `COC(=O)[C@H](CNC(=O)C(=O)NCC1CCCc2ccccc21)NC(=O)c1ccc(Nc2nc(NC3(c4ccc(Cl)cc4)CC3)nc(OCC(F)(F)F)n2)cc1` (stereo partly drawn) [Compound 1299], under setting [4], the EC50 was 0.01 to 10 nM. The same measure, in the same setting: to `CCC1(CC)CC1CNC(=O)C(=O)NC[C@H](NC(=O)c1ccc(Nc2nc(NC3(c4ccc(Cl)cc4)CC3)nc(OCC(F)(F)F)n2)cc1)C(=O)O` (stereo partly drawn) [Compound 1471] belongs 0.01 to 10 nM; to `COC(=O)[C@H](CCNC(=O)C(=O)NC1CCC(C)CC1)NC(=O)c1ccc(Nc2nc(NC3(c4ccc(Cl)cc4)CC3)nc(OCC(F)(F)F)n2)cc1` (stereo partly drawn) [Compound 1109], 0.01 to 10 nM. The same measure, in the same setting: to `Cc1cccc(C2CC2CNC(=O)C(=O)NCC[C@H](NC(=O)c2ccc(Nc3nc(NC4(c5ccc(Cl)cc5)CC4)nc(OCC(F)(F)F)n3)cc2)C(=O)O)c1` (stereo partly drawn) [Compound 1434] belongs 0.01 to 10 nM.

As to `CC(F)Oc1cccc(NC(=O)C(=O)NCC[C@H](NC(=O)c2ccc(Nc3nc(NC4(c5ccc(Cl)cc5)CC4)nc(OCC(F)(F)F)n3)cc2)C(=O)O)c1` (stereo partly drawn) [Compound 3633], the EC50 by setting is: under setting [6], 0.058 nM; under setting [5], 0.01 to 10 nM. On to `COC(=O)[C@H](CNC(=O)C(=O)NC1CCCC(C)C1)NC(=O)c1ccc(Nc2nc(NC3(c4ccc(Cl)cc4)CC3)nc(OCC(F)(F)F)n2)cc1` (stereo partly drawn) [Compound 1059], for which the EC50 under setting [4] lay in the range of 0.01 to 10 nM.

On to `COc1cc(OC)nc(-c2ccc(NC(=O)C(=O)NC[C@H](NC(=O)c3ccc(Nc4nc(NC5(c6ccc(Cl)cc6)CC5)nc(OCC(F)(F)F)n4)cc3)C(=O)O)cc2)n1` [Compound 3270], for which the 50% effective concentration (EC50) under setting [2] was in the range of 0.01 to 10 nM. For `COC(=O)[C@@H](CCNC(=O)C(=O)NCC1(COc2ccccc2)CC1)NC(=O)c1ccc(Nc2nc(NC3(c4ccc(Cl)cc4)CC3)nc(OCC(F)(F)F)n2)cc1` [Compound 1387], the 50% effective concentration (EC50) under setting [4] fell in the range of 0.01 to 10 nM.

On to `CONC(=O)C(=O)NCC(C)(C)CNC(=O)c1ccc(Nc2nc(NC3(c4ccc(Cl)cc4)CC3)nc(OCC(F)(F)F)n2)cc1` [Compound 3002], for which the EC50 was 0.044 nM under setting [1] and 0.01 to 10 nM under setting [2]. Turning to `O=C(Nc1ccccc1)C(=O)N[C@H](CCNC(=O)c1ccc(Nc2nc(NC3(c4ccc(Cl)cc4)CC3)nc(OCC(F)(F)F)n2)cc1)C(=O)O` [Compound 3494], under setting [2], the EC50 was 0.01 to 10 nM. For the compound `O=C(NCC1CCc2ccccc21)C(=O)NC[C@H](NC(=O)c1ccc(Nc2nc(NC3(c4ccc(Cl)cc4)CC3)nc(OCC(F)(F)F)n2)cc1)C(=O)O` (stereo partly drawn) [Compound 1414], the EC50 under setting [4] is 0.01 to 10 nM. As to `O=C(NCC[C@H](NC(=O)c1ccc(Nc2nc(NC3(c4ccc(Cl)cc4)CC3)nc(OCC(F)(F)F)n2)cc1)C(=O)O)C(=O)Nc1ccc(N2CCOCC2)nc1` [Compound 3628], the EC50 under setting [5] was in the range of 0.01 to 10 nM. With `CC(CNC(=O)C(=O)Nc1cc(F)cc(F)c1)CNC(=O)c1ccc(Nc2nc(NC3(c4ccc(Cl)cc4)CC3)nc(OCC(F)(F)F)n2)cc1` (stereo not drawn) [Compound 3469], the EC50 reads like this: under setting [1], 0.035 nM; under setting [2], 0.01 to 10 nM. As for `O=C(NCCc1ccncc1)C(=O)NCC[C@H](NC(=O)c1ccc(Nc2nc(NC3(c4ccc(Cl)cc4)CC3)nc(OCC(F)(F)F)n2)cc1)C(=O)O` [Compound 1332], the concentration for a half-maximal effect (EC50) under setting [4] lay within 0.01 to 10 nM. The same measure, in the same setting: for `COC(=O)[C@@H](CCNC(=O)C(=O)NCC1CC1c1cccc(OC)c1)NC(=O)c1ccc(Nc2nc(NC3(c4ccc(Cl)cc4)CC3)nc(OCC(F)(F)F)n2)cc1` (stereo partly drawn) [Compound 1416] the value was 0.01 to 10 nM.

For the compound `Cc1nc(-c2ccc(NC(=O)C(=O)NCCC(NC(=O)c3ccc(Nc4nc(NC5(c6ccc(Cl)cc6)CC5)nc(OCC(F)(F)F)n4)cc3)C(=O)O)cc2)cs1` (stereo not drawn) [Compound 3528], the EC50 under setting [2] was 0.01 to 10 nM.
